Consider four compounds from publication PMC6099617, “Synthesis of Antibacterial Nisin–Peptoid Hybrids Using Click Methodology” (Molecules : A Journal of Synthetic Chemistry and Natural …, 2018).

For one assay, the system named is HaCaT keratinocytes. Kind of assay: Cytotoxicity assay (alamarBlue cell viability), HaCaT. In kind it is cell-based. Conditions: 1 hour with compound 2–100 µM, then 24 hours. The procedure: (§1) Cytotoxicity analyses were performed in 96-well plates (Costar, Fisher Scientific) using alamarBlue® (Invitrogen) for cell viability detection using a modified protocol as previously described.9 The HepG2 or HaCaT cells were grown at 37 °C, 5 % CO2 in DMEM10 high glucose supplemented with heat-inactivated foetal bovine sera (FBS, 10 %; Biosera Ltd) and penicillin/streptomycin (P/S, 1 %). Cells were counted using a Neubauer Improved Haemocytometer. Cells were seeded 1 day prior to treatment in 96 well plates at a concentration of 2 x 10^5 cells mL-1 in 100 µL of medium (2 x 10^4 cells/well). Empty wells were filled with 100 µL PBS. After 24 hours, cells were incubated with the compounds in a dilution series in triplicate from 2–100 µM (5 mM stock solutions in DMSO; untreated cells with DMSO as a negative control) in 50 µL of the media for 1 hour. Afterwards, 40 µL of medium was removed from each well before the addition of 90 µL of the media, followed by incubation for 24 hours at 37 °C, 5 % CO2. Then, 10 µL of alamarBlue® (Invitrogen) was added to each well before a 2 hour incubation prior to assessing cell viability using a fluorescent plate reader (Biotek; λex 560 nm, λem 600 nm).

The next assay relates to epithelial HepG2 cells. Kind of assay: Cytotoxicity assay (alamarBlue cell viability), HepG2. Type of assay: cell-based. To be noted: 1 hour with compound 2–100 µM, then 24 hours. The protocol:
as §1
(Resazurin is reduced to fluorescent resorufin, in cell work by metabolically active cells.)

Assay [1] relates to methicillin-resistant Staphylococcus aureus USA 300.
Another assay concerns S. aureus. Conditions: had shown promising antibacterial activities; strain and reference not given; cited from earlier work.
Assay [2] relates to methicillin-resistant Staphylococcus aureus USA 300. Kind of assay: microbe, parasite or virus in culture. To be noted: MRSA / USA300, read-out: MIC S. aureus (USA300).

In brackets after ≈: the same amount, converted by molar mass. Read-outs that look alike come from different tables or passages of the source. Square brackets hold non-standard residues; d marks the D form. Peptide text beside a SMILES is read from it. N(4-F-Bzl)Gly = O=C(O)CNCc1ccc(F)cc1; Gly(N-2-aminoethyl) = NCCNCC(=O)O; Nspe = C[C@H](NCC(=O)O)c1ccccc1; Nlys = NCCCCNCC(=O)O

On to `C[C@@H](c1ccccc1)N(CC(N)=O)C(=O)CN(C(=O)CN(CCN)C(=O)CN(C(=O)CN(C(=O)CN(CCN)C(=O)CN(C(=O)CN(C(=O)CN(CCN)C(=O)CN(C(=O)CN(C(=O)CNCCN)[C@@H](C)c1ccccc1)[C@@H](C)c1ccccc1)[C@@H](C)c1ccccc1)[C@@H](C)c1ccccc1)[C@@H](C)c1ccccc1)[C@@H](C)c1ccccc1)[C@@H](C)c1ccccc1` [1a, (NaeNspeNspe)4] (H-[Gly(N-2-aminoethyl)][Nspe][Nspe][Gly(N-2-aminoethyl)][Nspe][Nspe][Gly(N-2-aminoethyl)][Nspe][Nspe][Gly(N-2-aminoethyl)][Nspe][Nspe]-NH2; N-terminus and C-terminus assumed), for which the “ED50 HaCaT” value with HaCaT keratinocytes is 26 µM. In addition, in the assay with epithelial HepG2 cells, the “ED50 HepG2” value was 15 µM. Also, in assay [1] (USA 300), the “MIC S. aureus (USA300)” value was 2 µM (≈ 3.41 µg/mL). Also, in the assay with S. aureus, the “MIC against S. aureus (reason for choosing the sequences)” value is “below 2 µM”.

Regarding `C[C@@H](c1ccccc1)N(CC(N)=O)C(=O)CN(C(=O)CN(CCCCN)C(=O)CN(Cc1ccc(F)cc1)C(=O)CN(Cc1ccc(F)cc1)C(=O)CN(CCCCN)C(=O)CN(C(=O)CN(C(=O)CN(CCCCN)C(=O)CN(Cc1ccc(F)cc1)C(=O)CN(Cc1ccc(F)cc1)C(=O)CNCCCCN)[C@@H](C)c1ccccc1)[C@@H](C)c1ccccc1)[C@@H](C)c1ccccc1` [1b, [(NLysNpfbNpfb)(NLysNspeNspe)]2] (H-[Nlys][N(4-F-Bzl)Gly][N(4-F-Bzl)Gly][Nlys][Nspe][Nspe][Nlys][N(4-F-Bzl)Gly][N(4-F-Bzl)Gly][Nlys][Nspe][Nspe]-NH2; N-terminus and C-terminus assumed), in the assay on HaCaT keratinocytes, the “ED50 HaCaT” value is recorded as 53 µM. Moreover, the “ED50 HepG2” value with epithelial HepG2 cells is recorded as 18 µM. Also, the “MIC S. aureus (USA300)” value in assay [1] (USA 300) lay in the range of 2 to 4 µM. In the assay on S. aureus, the “MIC against S. aureus (reason for choosing the sequences)” value is “below 2 µM”.

In the case of `C=C1NC(=O)[C@H]([C@@H](C)CC)NC(=O)[C@H](NC(=O)/C(=C/C)NC(=O)[C@@H](N)[C@@H](C)CC)CSC[C@@H](C(=O)N[C@H]2C(=O)N3CCC[C@H]3C(=O)NCC(=O)N[C@H](C(=O)N[C@@H](CCCCN)C(=O)O)CS[C@H]2C)NC(=O)[C@H](CC(C)C)NC1=O` [compound 4, Nisin[1,2,3,4,5,6,7,8,9, 10, 11, 12], reference compound], the “MIC S. aureus (USA300)” value in assay [1] (MRSA USA300, CAMHB, overnight incubation 35 °C, visual inspection, duplicate) was above 100 µM.

On to `CN[C@H](CC(C)C)C(=O)N[C@H]1C(=O)N[C@@H](CC(N)=O)C(=O)N[C@H]2C(=O)N[C@H]3C(=O)N[C@H](C(=O)N[C@H](C(=O)O)c4cc(O)cc(O)c4-c4cc3ccc4O)[C@H](O)c3ccc(c(Cl)c3)Oc3cc2cc(c3O[C@@H]2O[C@H](CO)[C@@H](O)[C@H](O)[C@H]2O[C@H]2C[C@](C)(N)[C@H](O)[C@H](C)O2)Oc2ccc(cc2Cl)[C@H]1O` [compound 7, Vancomycin], for which the MIC in assay [2] came out at 1 µM (≈ 1.45 µg/mL).
